Measurements: patent US7854753B2, “Photokinetic delivery of biologically active substances using pulsed incoherent light” (Photokinetix, Inc., priority 2002, dated 2010)

Test: Franz skin diffusion cell permeation (percutaneous absorption) under ambient, natural or pulsed incoherent LED light
Conditions: for Permeation Dark: ambient light absent; for Permeation Ctrl: ambient cool fluorescent light only, 260-750 nm, 120 cps; for Permeation Ctrl-TiO2: ambient fluorescent light, sample with 2% (w/w) rutile TiO2; for Ctrl: ambient light only; for Ctrl-TiO2: ambient light, 2% TiO2; for Ctrl-TiO2/1.7 / Ctrl-TiO2/9.7 / Ctrl-TiO2/24: Table 7, 350 nm series; for Ctrl-TiO2/1.7: 2% TiO2, 1.7 cps; for Ctrl-TiO2/9.7: 2% TiO2, 9.7 cps; for Ctrl-TiO2/24: 2% TiO2, 24 cps; for 350/1.7 / 350/9.7 / 350/24: Table 7; for 350/1.7 / 405/1.7: 1.7 cps; for 350/9.7 / 405/9.7: 9.7 cps; for 350/24 / 405/24: 24 cps; for 405/1.7 / 405/9.7 / 405/24: Table 10
[1] = 350 + TiO2, 24 cps vs Dark-TiO2
[2] = 350 + TiO2, 80 cps vs Dark-TiO2
[3] = 390 + TiO2, 24 cps vs Dark-TiO2
[4] = 390 + TiO2, 80 cps vs Dark-TiO2
[5] = 405 + TiO2, 24 cps vs Dark-TiO2
[6] = 405 + TiO2, 80 cps vs Dark-TiO2
[7] = 450 + TiO2, 24 cps vs Dark-TiO2
[8] = 450 + TiO2, 80 cps vs Dark-TiO2
[9] = Dark-TiO2 control (2% TiO2), 24 cps series
[10] = Dark-TiO2 control (2% TiO2), 80 cps series
[11] = Day (natural daylight, not pulsed), control of the 24 cps series
[12] = Day (natural daylight, not pulsed), control of the 80 cps series
[13] = Day-TiO2 (natural daylight, 2% TiO2, not pulsed), control of the 24 cps series
[14] = Day-TiO2 (natural daylight, 2% TiO2, not pulsed), control of the 80 cps series
[15] = Day-TiO2 vs Dark-TiO2, 24 cps series
[16] = Day-TiO2 vs Dark-TiO2, 80 cps series

Cn1c(=O)c2c(ncn2CC(=O)O)n(C)c1=O [Compound 1, Theophylline-7 acetic acid]
Permeation Dark (Dark control): 0.00 μg/0.64 cm^2/25 hrs
Permeation Ctrl: 0.00 μg/0.64 cm^2/25 hrs
Permeation Ctrl-TiO2: 0.00 μg/0.64 cm^2/25 hrs

O=C1O[C@H]([C@@H](O)CO)C([O-])=C1OP(=O)([O-])[O-].[Na+].[Na+].[Na+] [Compound 2, Sodium ascorbyl phosphate]
Ctrl (Table 7 (350 nm series)): 0.00
Ctrl-TiO2 (Table 7 (350 nm series)): 0.00
Ctrl-TiO2/1.7: 42.75
Ctrl-TiO2/9.7: 6.48
Ctrl-TiO2/24: 0.00
350/1.7 (350 nm): 3.33
350/9.7 (350 nm): 0.00
350/24 (350 nm): 0.00

O=C1O[C@H]([C@@H](O)CO)C(O)=C1O [Compound 3, Ascorbic Acid]
Ctrl (Table 7 (350 nm series)): 147.49
Ctrl-TiO2 (Table 7 (350 nm series)): 67.01
Ctrl (Table 8 (405 nm series)): 557.96
Ctrl-TiO2 (Table 8 (405 nm series)): 127.25

CCCCCCCCCCCCCCCC(=O)OC[C@H](O)[C@H]1OC(=O)C(O)=C1O [Compound 4, Ascorbyl palmitate]
Permeation Dark (Dark control): 0.00 μg/0.64 cm^2/25 hrs
Ctrl (Table 7 (350 nm series)): 263.48
Ctrl-TiO2 (Table 7 (350 nm series)): 260.00
Ctrl-TiO2/1.7: 289.57
Ctrl-TiO2/9.7: 312.06
Ctrl-TiO2/24: 180.88
350/1.7 (350 nm): 160.87
350/9.7 (350 nm): 0.00
350/24 (350 nm): 151.00

Cn1c(=O)c2c(ncn2C)n(C)c1=O [Compound 9, Caffeine]
Permeation Dark (Dark control): 269.40 μg/0.64 cm^2/25 hrs
Permeation Ctrl: 168.70 μg/0.64 cm^2/25 hrs
Permeation Ctrl-TiO2: 47.22 μg/0.64 cm^2/25 hrs

CC(C)[C@H](N)C(=O)N[C@@H](Cc1ccc(O)cc1)C(=O)N[C@H](C(=O)O)C(C)C [Compound 12, Val-Tyr-Val]
% Permeation (percent increase or decrease vs dark baseline, equation 1) [1]: 66.64%
% Permeation (percent increase or decrease vs dark baseline, equation 1) [2]: 65.49%
Permeation (350 + TiO2, pulse rate 24 cps): 18.98 μg/cm^2/24 hrs
Permeation (350 + TiO2, pulse rate 80 cps): 16.45 μg/cm^2/24 hrs
Permeation (350 nm LED, pulse rate 24 cps): 22.69 μg/cm^2/24 hrs
Permeation (350 nm LED, pulse rate 80 cps): 17.41 μg/cm^2/24 hrs
% Permeation (percent increase or decrease vs dark baseline, equation 1) (350 nm, 24 cps vs Dark): 50.96%
% Permeation (percent increase or decrease vs dark baseline, equation 1) (350 nm, 80 cps vs Dark): 94.09%
% Permeation (percent increase or decrease vs dark baseline, equation 1) [3]: 11.76%
% Permeation (percent increase or decrease vs dark baseline, equation 1) [4]: 95.88%
Permeation (390 + TiO2, pulse rate 24 cps): 12.73 μg/cm^2/24 hrs
Permeation (390 + TiO2, pulse rate 80 cps): 19.47 μg/cm^2/24 hrs
Permeation (390 nm LED, pulse rate 24 cps): 21.47 μg/cm^2/24 hrs
Permeation (390 nm LED, pulse rate 80 cps): 18.70 μg/cm^2/24 hrs
% Permeation (percent increase or decrease vs dark baseline, equation 1) (390 nm, 24 cps vs Dark): 42.85%
% Permeation (percent increase or decrease vs dark baseline, equation 1) (390 nm, 80 cps vs Dark): 108.47%
% Permeation (percent increase or decrease vs dark baseline, equation 1) [5]: −44.16%
% Permeation (percent increase or decrease vs dark baseline, equation 1) [6]: 101.11%
Permeation (405 + TiO2, pulse rate 24 cps): 6.36 μg/cm^2/24 hrs
Permeation (405 + TiO2, pulse rate 80 cps): 19.99 μg/cm^2/24 hrs
Permeation (405 nm LED, pulse rate 24 cps): 12.32 μg/cm^2/24 hrs
Permeation (405 nm LED, pulse rate 80 cps): 19.89 μg/cm^2/24 hrs
% Permeation (percent increase or decrease vs dark baseline, equation 1) (405 nm, 24 cps vs Dark): −18.03%
% Permeation (percent increase or decrease vs dark baseline, equation 1) (405 nm, 80 cps vs Dark): 121.74%
% Permeation (percent increase or decrease vs dark baseline, equation 1) [7]: −33.98%
% Permeation (percent increase or decrease vs dark baseline, equation 1) [8]: 48.29%
Permeation (450 + TiO2, pulse rate 24 cps): 7.52 μg/cm^2/24 hrs
Permeation (450 + TiO2, pulse rate 80 cps): 14.74 μg/cm^2/24 hrs
Permeation (450 nm LED, pulse rate 24 cps): 9.51 μg/cm^2/24 hrs
Permeation (450 nm LED, pulse rate 80 cps): 17.39 μg/cm^2/24 hrs
% Permeation (percent increase or decrease vs dark baseline, equation 1) (450 nm, 24 cps vs Dark): −36.73%
% Permeation (percent increase or decrease vs dark baseline, equation 1) (450 nm, 80 cps vs Dark): 93.87%
Permeation Dark (Dark control): 37.24 μg/0.64 cm^2/25 hrs
Permeation (Dark control, 24 cps series): 15.03 μg/cm^2/24 hrs
Permeation (Dark control, 80 cps series): 8.97 μg/cm^2/24 hrs
Permeation [9]: 11.39 μg/cm^2/24 hrs
Permeation [10]: 9.94 μg/cm^2/24 hrs
Permeation [11]: 8.27 μg/cm^2/24 hrs
Permeation [12]: 11.32 μg/cm^2/24 hrs
% Permeation (percent increase or decrease vs dark baseline, equation 1) (Day vs Dark, 24 cps series): −44.98%
% Permeation (percent increase or decrease vs dark baseline, equation 1) (Day vs Dark, 80 cps series): 26.20%
Permeation [13]: 11.11 μg/cm^2/24 hrs
Permeation [14]: 13.64 μg/cm^2/24 hrs
% Permeation (percent increase or decrease vs dark baseline, equation 1) [15]: −2.55%
% Permeation (percent increase or decrease vs dark baseline, equation 1) [16]: 37.22%
405/1.7 (405 nm): 23.21
405/9.7 (405 nm): 91.68
405/24 (405 nm): 48.83
Ctrl (Table 10 peptides): 35.26
Permeation Ctrl: 35.26 μg/0.64 cm^2/25 hrs
Permeation Ctrl-TiO2: 41.18 μg/0.64 cm^2/25 hrs

CC(C)C[C@H](NC(=O)[C@H](Cc1ccccc1)NC(=O)CNC(=O)CNC(=O)[C@@H](N)Cc1ccc(O)cc1)C(=O)O [Compound 14, Leucine Enkephalin (Tyr-Gly-Gly-Phe-Leu)]
% Permeation (percent increase or decrease vs dark baseline, equation 1) [1]: 8.58%
% Permeation (percent increase or decrease vs dark baseline, equation 1) [2]: 39.43%
Permeation (350 + TiO2, pulse rate 24 cps): 73.17 μg/cm^2/24 hrs
Permeation (350 + TiO2, pulse rate 80 cps): 28.50 μg/cm^2/24 hrs
Permeation (350 nm LED, pulse rate 24 cps): 84.44 μg/cm^2/24 hrs
Permeation (350 nm LED, pulse rate 80 cps): 31.30 μg/cm^2/24 hrs
% Permeation (percent increase or decrease vs dark baseline, equation 1) (350 nm, 24 cps vs Dark): −21.59%
% Permeation (percent increase or decrease vs dark baseline, equation 1) (350 nm, 80 cps vs Dark): 72.36%
% Permeation (percent increase or decrease vs dark baseline, equation 1) [3]: 54.21%
% Permeation (percent increase or decrease vs dark baseline, equation 1) [4]: 55.14%
Permeation (390 + TiO2, pulse rate 24 cps): 103.92 μg/cm^2/24 hrs
Permeation (390 + TiO2, pulse rate 80 cps): 31.71 μg/cm^2/24 hrs
Permeation (390 nm LED, pulse rate 24 cps): 108.49 μg/cm^2/24 hrs
Permeation (390 nm LED, pulse rate 80 cps): 31.32 μg/cm^2/24 hrs
% Permeation (percent increase or decrease vs dark baseline, equation 1) (390 nm, 24 cps vs Dark): 0.74%
% Permeation (percent increase or decrease vs dark baseline, equation 1) (390 nm, 80 cps vs Dark): 72.47%
% Permeation (percent increase or decrease vs dark baseline, equation 1) [5]: 322.29%
% Permeation (percent increase or decrease vs dark baseline, equation 1) [6]: −35.47%
Permeation (405 + TiO2, pulse rate 24 cps): 284.58 μg/cm^2/24 hrs
Permeation (405 + TiO2, pulse rate 80 cps): 13.19 μg/cm^2/24 hrs
Permeation (405 nm LED, pulse rate 24 cps): 87.52 μg/cm^2/24 hrs
Permeation (405 nm LED, pulse rate 80 cps): 20.82 μg/cm^2/24 hrs
% Permeation (percent increase or decrease vs dark baseline, equation 1) (405 nm, 24 cps vs Dark): −18.73%
% Permeation (percent increase or decrease vs dark baseline, equation 1) (405 nm, 80 cps vs Dark): 14.65%
% Permeation (percent increase or decrease vs dark baseline, equation 1) [7]: 158.04%
% Permeation (percent increase or decrease vs dark baseline, equation 1) [8]: 45.45%
Permeation (450 + TiO2, pulse rate 24 cps): 173.89 μg/cm^2/24 hrs
Permeation (450 + TiO2, pulse rate 80 cps): 29.73 μg/cm^2/24 hrs
Permeation (450 nm LED, pulse rate 24 cps): 29.25 μg/cm^2/24 hrs
Permeation (450 nm LED, pulse rate 80 cps): 21.81 μg/cm^2/24 hrs
% Permeation (percent increase or decrease vs dark baseline, equation 1) (450 nm, 24 cps vs Dark): −72.84%
% Permeation (percent increase or decrease vs dark baseline, equation 1) (450 nm, 80 cps vs Dark): 20.10%
Permeation Dark (Dark control): 41.68 μg/0.64 cm^2/25 hrs
Permeation (Dark control, 24 cps series): 107.69 μg/cm^2/24 hrs
Permeation (Dark control, 80 cps series): 18.16 μg/cm^2/24 hrs
Permeation [9]: 67.39 μg/cm^2/24 hrs
Permeation [10]: 20.44 μg/cm^2/24 hrs
Permeation [11]: 37.31 μg/cm^2/24 hrs
Permeation [12]: 20.89 μg/cm^2/24 hrs
% Permeation (percent increase or decrease vs dark baseline, equation 1) (Day vs Dark, 24 cps series): −65.35%
% Permeation (percent increase or decrease vs dark baseline, equation 1) (Day vs Dark, 80 cps series): 15.03%
Permeation [13]: 46.85 μg/cm^2/24 hrs
Permeation [14]: 18.64 μg/cm^2/24 hrs
% Permeation (percent increase or decrease vs dark baseline, equation 1) [15]: −30.48%
% Permeation (percent increase or decrease vs dark baseline, equation 1) [16]: −8.81%
405/1.7 (405 nm): 40.38
405/9.7 (405 nm): 1.23
405/24 (405 nm): 0.00
Ctrl (Table 10 peptides): 0.00
Permeation Ctrl: 0.00 μg/0.64 cm^2/25 hrs
Permeation Ctrl-TiO2: 0.00 μg/0.64 cm^2/25 hrs

CC[C@H](C)[C@H](NC(=O)[C@H](Cc1ccc(O)cc1)NC(=O)[C@@H](NC(=O)[C@H](CCCNC(=N)N)NC(=O)[C@@H](N)CC(=O)O)C(C)C)C(=O)N[C@@H](Cc1cnc[nH]1)C(=O)N1CCC[C@H]1C(=O)N[C@@H](Cc1ccccc1)C(=O)O [Compound 15]
Permeation Dark (Dark control): 42.80 μg/0.64 cm^2/25 hrs
405/1.7 (405 nm): 19.99
405/9.7 (405 nm): 73.19
405/24 (405 nm): 3.87
Ctrl (Table 10 peptides): 0.00
Permeation Ctrl: 0.00 μg/0.64 cm^2/25 hrs
Permeation Ctrl-TiO2: 0.00 μg/0.64 cm^2/25 hrs
